Data taken from US7157083B2, “Compositions and methods for treating retroviral infections” (priority 1998, dated 2007).

Tested on: IIIB (HIV IIIB virus)
Assay: Study 4 sensitization, Turpin and standard macrophages: RT activity after IIIB challenge
Format: cell-based
Protocol: Percent virus control (% VC) in the following tables is the mean RT activity (cpm) as a percentage of a virus control. Percent cell control (% CC) is the mean XTT absorbance as a percentage of a cell control.
Reverse transcriptase (RT) activity was measured in cell-free supernatants. Tritiated thymidine triphosphate (NEN) (TTP) was resuspended in distilled H2O at […]. Poly rA and oligo dT were prepared as a stock solution which was kept at −20° C. The RT reaction buffer was prepared fresh on a daily basis and consists of 125 μL 1.0 M EGTA, 125 μL d H2O, 110 μL 10% SDS, 50 μL 1.0 M Tris (pH 7.4), 50 μL 1.0 M DTT, and 40μ1.0 M MgCl2. These three solutions were mixed together in a ratio of 2 parts TTP, 1 part poly rA:oligo dT, and 1 part reaction buffer. Ten microliters of this reaction mixture was placed in a round bottom microtiter plate and 15 μL of virus containing supernatant was added and mixed. The plate was incubated at 37° C. in a water bath with a solid support to prevent submersion of the plate and incubated for 60 minutes. Following reaction, the reaction volume was spotted onto pieces of DE81 paper, washed 5 times for 5 minutes each in a 5% sodium phosphate buffer, 2 times for 1 minute each in distilled water, 2 times for 1 minute each in 70% ethanol, and then dried. Opti-Fluor O was added to each sample and incorporated radioactivity was quantitated utilizing a Wallace 1450 Microbetaplus liquid scintillation counter.
The macrophage plates were then washed with HBSS multiple times. Fresh mixed pha blast PBMCs (5×10e4/well) were placed on the macrophage cells, allowed to incubate for 72 hours and then harvested and reset in a fresh 96 well plate. The PBMCs were then challenged overnight with the respective virus (IIIB or Rojo) at a standard MOI for that virus. The PBMCs were 5× in plate spin washed with DPBS, incubated 24 hours, at which time 5×10e4 fresh pha blast PBMCs/well were added. The culture was incubated an additional 6 days and then assayed for RT activity.
Where viability corrections were conducted, they were performed by dividing the RT CPM value by the toxicity absorbance in order to compensate for well to well variations noted in the cell titer toxicity noted.

Substance: Hyaluronidase
- RT activity % VC (0.195313 μg/mL, GP120IIIB Sensitized, Turpin): 108.1%
- RT activity % VC (0.195313 μg/mL, IIIB Sensitized, Standard): 178.1%
- RT activity % VC (0.195313 μg/mL, IIIB Sensitized, Turpin): 95.8%
- RT activity % VC (0.390625 μg/mL, GP120IIIB Sensitized, Standard): 87.7%
- RT activity % VC (0.390625 μg/mL, GP120IIIB Sensitized, Turpin): 83.5%
- RT activity % VC (0.390625 μg/mL, IIIB Sensitized, Standard): 181.3%
- RT activity % VC (0.78125 μg/mL, GP120IIIB Sensitized, Standard): 94.5%
- RT activity % VC (0.78125 μg/mL, GP120IIIB Sensitized, Turpin): 105.6%
- RT activity % VC (0.78125 μg/mL, IIIB Sensitized, Standard): 129.9%
- RT activity % VC (0.78125 μg/mL, IIIB Sensitized, Turpin): 100.0%
- RT activity % VC (1.5625 μg/mL, GP120IIIB Sensitized, Standard): 100.7%
- RT activity % VC (1.5625 μg/mL, GP120IIIB Sensitized, Turpin): 58.0%
- RT activity % VC (1.5625 μg/mL, IIIB Sensitized, Standard): 203.0%
- RT activity % VC (1.5625 μg/mL, IIIB Sensitized, Turpin): 68.3%
- RT activity % VC (3.125 μg/mL, GP120IIIB Sensitized, Standard): 82.3%
- RT activity % VC (3.125 μg/mL, GP120IIIB Sensitized, Turpin): 71.2%
- RT activity % VC (3.125 μg/mL, IIIB Sensitized, Standard): 120.8%
- RT activity % VC (6.25 μg/mL, GP120IIIB Sensitized, Standard): 106.5%
- RT activity % VC (6.25 μg/mL, GP120IIIB Sensitized, Turpin): 72.2%
- RT activity % VC (6.25 μg/mL, IIIB Sensitized, Standard): 234.4%
- RT activity % VC (6.25 μg/mL, IIIB Sensitized, Turpin): 70.0%
- RT activity % VC (25 μg/mL, GP120IIIB Sensitized, Standard): 70.6%
- RT activity % VC (25 μg/mL, GP120IIIB Sensitized, Turpin): 52.1%
- RT activity % VC (25 μg/mL, IIIB Sensitized, Standard): 99.8%
- RT activity % VC (25 μg/mL, IIIB Sensitized, Turpin): 23.6%
- RT activity % VC (viability corrected, 0.097656 μg/mL, GP120IIIB Sensitized, Standard): 105.6%
- RT activity % VC (viability corrected, 0.097656 μg/mL, GP120IIIB Sensitized, Turpin): 116.0%
- RT activity % VC (viability corrected, 0.097656 μg/mL, IIIB Sensitized, Standard): 103.7%
- RT activity % VC (viability corrected, 0.097656 μg/mL, IIIB Sensitized, Turpin): 95.3%
- RT activity % VC (viability corrected, 0.195313 μg/mL, GP120IIIB Sensitized, Standard): 83.8%
- RT activity % VC (viability corrected, 0.195313 μg/mL, GP120IIIB Sensitized, Turpin): 111.2%
- RT activity % VC (viability corrected, 0.195313 μg/mL, IIIB Sensitized, Standard): 141.1%
- RT activity % VC (viability corrected, 0.195313 μg/mL, IIIB Sensitized, Turpin): 110.9%
- RT activity % VC (viability corrected, 0.390625 μg/mL, GP120IIIB Sensitized, Standard): 74.2%
- RT activity % VC (viability corrected, 0.390625 μg/mL, GP120IIIB Sensitized, Turpin): 122.4%
- RT activity % VC (viability corrected, 0.390625 μg/mL, IIIB Sensitized, Standard): 177.8%
- RT activity % VC (viability corrected, 0.390625 μg/mL, IIIB Sensitized, Turpin): 98.3%
- RT activity % VC (viability corrected, 0.78125 μg/mL, GP120IIIB Sensitized, Standard): 100.5%
- RT activity % VC (viability corrected, 0.78125 μg/mL, GP120IIIB Sensitized, Turpin): 115.4%
- RT activity % VC (viability corrected, 0.78125 μg/mL, IIIB Sensitized, Standard): 117.6%
- RT activity % VC (viability corrected, 0.78125 μg/mL, IIIB Sensitized, Turpin): 95.5%
- RT activity % VC (viability corrected, 1.5625 μg/mL, GP120IIIB Sensitized, Standard): 97.2%
- RT activity % VC (viability corrected, 1.5625 μg/mL, GP120IIIB Sensitized, Turpin): 74.4%
- RT activity % VC (viability corrected, 1.5625 μg/mL, IIIB Sensitized, Standard): 189.1%
- RT activity % VC (viability corrected, 1.5625 μg/mL, IIIB Sensitized, Turpin): 79.6%
- RT activity % VC (viability corrected, 3.125 μg/mL, GP120IIIB Sensitized, Standard): 76.1%
- RT activity % VC (viability corrected, 3.125 μg/mL, GP120IIIB Sensitized, Turpin): 79.0%
- RT activity % VC (viability corrected, 3.125 μg/mL, IIIB Sensitized, Standard): 115.2%
- RT activity % VC (viability corrected, 3.125 μg/mL, IIIB Sensitized, Turpin): 106.2%
- RT activity % VC (viability corrected, 6.25 μg/mL, GP120IIIB Sensitized, Standard): 95.2%
- RT activity % VC (viability corrected, 6.25 μg/mL, GP120IIIB Sensitized, Turpin): 96.0%
- RT activity % VC (viability corrected, 6.25 μg/mL, IIIB Sensitized, Standard): 181.7%
- RT activity % VC (viability corrected, 6.25 μg/mL, IIIB Sensitized, Turpin): 63.4%
- RT activity % VC (viability corrected, 25 μg/mL, GP120IIIB Sensitized, Standard): 81.6%
- RT activity % VC (viability corrected, 25 μg/mL, GP120IIIB Sensitized, Turpin): 54.1%
- RT activity % VC (viability corrected, 25 μg/mL, IIIB Sensitized, Standard): 124.6%
- RT activity % VC (viability corrected, 25 μg/mL, IIIB Sensitized, Turpin): 26.6%
